{"source": "patent US20060293223A1", "about": "(Eli Lilly and Company Patent Division, priority 2003, published 2006)", "note": "Positions of bridges follow the written chain, without caps; N, C: chain ends. Non-standard residues stand in square brackets, D forms with d. hCys = N[C@@H](CCS)C(=O)O;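 also: ratio of EC50 values obtained at MC1 versus MC4 receptors, with MC1 potency measured by luciferase reporter activity in stably transfected cells expressing human MC1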", "data": [{"tested_on": "MC1/MC4", "details": "ratio MC1/MC4", "values": [{"substance": "3-(4-hydroxyphenyl)propionyl-Arg-cyclo[Cys-Glu-His-D-Phe-Arg-Trp-Cys]-NH2 [Compound 66]", "MC1/MC4 selectivity": 13.23}, {"substance": "3-(4-methylbenzoyl)propionyl-Arg-cyclo[Cys-Glu-His-D-Phe-Arg-Trp-Cys]-NH2 [Compound 67]", "MC1/MC4 selectivity": 9.15}, {"substance": "3-guanidinopropionyl-cyclo[Cys-Glu-His-D-Phe-Arg-Trp-Cys]-NH2 [Compound 40]", "MC1/MC4 selectivity": 25.92}, {"substance": "3-guanidinopropionyl-cyclo[hCys-His-D-Phe-Arg-Trp-Cys]-NH2 [Compound 148]", "MC1/MC4 selectivity": 51.98}, {"substance": "4-guanidinobutyryl-cyclo[Cys-Glu-His-D-Phe-Arg-Trp-Cys]-NH2 [Compound 41]", "MC1/MC4 selectivity": 58.47}, {"substance": "4-phenylbutyryl-cyclo[hCys-His-D-Phe-Arg-Trp-Cys]-NH2 [Compound 147]", "MC1/MC4 selectivity": 0.86}, {"substance": "4-phenylbutyryl-cyclo[hCys-His-D-Phe-Arg-Trp-penicillamine]-NH2 [Compound 174]", "MC1/MC4 selectivity": 4.98}, {"substance": "5-guanidinovaleryl-cyclo[Cys-Glu-His-D-Phe-Arg-Trp-Cys]-NH2 [Compound 42]", "MC1/MC4 selectivity": 44.63}, {"substance": "5-guanidinovaleryl-cyclo[hCys-His-D-Phe-Arg-Trp-Cys]-NH2 [Compound 149]", "MC1/MC4 selectivity": 51.85}, {"substance": "Ac-Arg-cyclo[Cys-Cya-His-D-Phe-Arg-Trp-Cys]-NH2 [Compound 26]", "MC1/MC4 selectivity": 38.90}, {"substance": "Ac-Arg-cyclo[Cys-Glu-(1-Me-His)-(4-Cl-D-Phe)-Arg-Trp-Cys]-NH2 [Compound 87]", "MC1/MC4 selectivity": 316.25}, {"substance": "Ac-Arg-cyclo[Cys-Glu-(1-Me-His)-D-Phe-Arg-Trp-Cys]-NH2 [Compound 51]", "MC1/MC4 selectivity": 76.75}, {"substance": "Ac-Arg-cyclo[Cys-Glu-His-(4-Cl-D-Phe)-Arg-Trp-Cys]-NH2 [Compound 50]", "MC1/MC4 selectivity": 36.10}, {"substance": "Ac-Arg-cyclo[Cys-Glu-His-D-Phe-Arg-Trp-Cys]-NH2 [Compound 48]", "MC1/MC4 selectivity": 26.80}, {"substance": "Ac-Arg-cyclo[Cys-Glu-His-D-Phe-Arg-Trp-Cys]-OH [Compound 49]", "MC1/MC4 selectivity": 35.35}, {"substance": "Ac-Arg-cyclo[Cys-His-(4-Cl-D-Phe)-Arg-Trp-hCys]-NH2 [Compound 191]", "MC1/MC4 selectivity": 127.33}, {"substance": "Ac-Arg-cyclo[Cys-His-(4-F-D-Phe)-Arg-Trp-hCys]-NH2 [Compound 190]", "MC1/MC4 selectivity": 367.10}, {"substance": "Ac-CDH[dF]RWC-NH2 (disulfide 1-7) [Compound 6]", "MC1/MC4 selectivity": 35.74}, {"substance": "Ac-CEH[dF]RWCKP-NH2 (disulfide 1-7) [Compound 35]", "MC1/MC4 selectivity": 1.17}, {"substance": "Ac-CEH[dF]RWCSP-NH2 (disulfide 1-7) [Compound 36]", "MC1/MC4 selectivity": 1.22}, {"substance": "Ac-CH[dF]RWC-NH2 (disulfide 1-6) [Compound 1]", "MC1/MC4 selectivity": 3.91}, {"substance": "Ac-CKH[dF]RWC-NH2 (disulfide 1-7) [Compound 16]", "MC1/MC4 selectivity": 2.94}, {"substance": "Ac-CLH[dF]RWC-NH2 (disulfide 1-7) [Compound 15]", "MC1/MC4 selectivity": 14.75}, {"substance": "Ac-CQH[dF]RWC-NH2 (disulfide 1-7) [Compound 8]", "MC1/MC4 selectivity": 3.33}, {"substance": "Ac-Cit-cyclo[Cys-Glu-(1-Me-His)-D-Phe-Arg-Trp-Cys]-NH2 [Compound 56]", "MC1/MC4 selectivity": 21.38}, {"substance": "Ac-Cit-cyclo[Cys-Glu-His-D-Phe-Arg-Trp-Cys]-NH2 [Compound 55]", "MC1/MC4 selectivity": 28.81}, {"substance": "Ac-D-Arg-cyclo[Cys-Cya-His-D-Phe-Arg-Trp-Cys]-NH2 [Compound 27]", "MC1/MC4 selectivity": 30.11}, {"substance": "Ac-D-Arg-cyclo[Cys-Glu-His-D-Phe-Arg-Trp-Cys]-NH2 [Compound 52]", "MC1/MC4 selectivity": 30.54}, {"substance": "Ac-KCEH[dF]RWC-NH2 (disulfide 2-8) [Compound 58]", "MC1/MC4 selectivity": 31.69}, {"substance": "Ac-LCEH[dF]RWC-NH2 (disulfide 2-8) [Compound 57]", "MC1/MC4 selectivity": 29.00}, {"substance": "Ac-Lys(ipr)-cyclo[Cys-Glu-His-D-Phe-Arg-Trp-Cys]-NH2 [Compound 59]", "MC1/MC4 selectivity": 20.92}, {"substance": "Ac-Orn-cyclo[Cys-Glu-His-D-Phe-Arg-Trp-Cys]-NH2 [Compound 62]", "MC1/MC4 selectivity": 46.91}, {"substance": "Ac-RCH[dF]RW[hCys]-NH2 (disulfide 2-7) [Compound 189]", "MC1/MC4 selectivity": 23.31}, {"substance": "Ac-R[hCys]H[dF]RWC-NH2 (disulfide 2-7) [Compound 158]", "MC1/MC4 selectivity": 50.25}, {"substance": "Ac-R[hCys]H[dF]RWC-OH (disulfide 2-7) [Compound 159]", "MC1/MC4 selectivity": 49.41}, {"substance": "Ac-Tyr-(1-β-hArg)-cyclo[Cys-Glu-His-D-Phe-Arg-Trp-Cys]-NH2 [Compound 127]", "MC1/MC4 selectivity": 20.25}, {"substance": "Ac-Tyr-Arg-cyclo[Cys-Cya-His-D-Phe-Arg-Trp-Cys]-NH2 [Compound 28]", "MC1/MC4 selectivity": 26.35}, {"substance": "Ac-Tyr-Arg-cyclo[Cys-Glu-(1-Bom-His)-D-Phe-Arg-Trp-Cys]-NH2 [Compound 101]", "MC1/MC4 selectivity": 0.97}, {"substance": "Ac-Tyr-Arg-cyclo[Cys-Glu-(1-Me-D-His)-(4-Br-D-Phe)-Arg-Trp-Cys]-NH2 [Compound 91]", "MC1/MC4 selectivity": 21.14}, {"substance": "Ac-Tyr-Arg-cyclo[Cys-Glu-(1-Me-D-His)-(4-Cl-D-Phe)-Arg-Trp-Cys]-NH2 [Compound 88]", "MC1/MC4 selectivity": 9.07}, {"substance": "Ac-Tyr-Arg-cyclo[Cys-Glu-(1-Me-D-His)-(4-F-D-Phe)-Arg-Trp-Cys]-NH2 [Compound 85]", "MC1/MC4 selectivity": 2.66}, {"substance": "Ac-Tyr-Arg-cyclo[Cys-Glu-(1-Me-D-His)-(4-OMe-D-Phe)-Arg-Trp-Cys]-NH2 [Compound 95]", "MC1/MC4 selectivity": 3.21}, {"substance": "Ac-Tyr-Arg-cyclo[Cys-Glu-(1-Me-D-His)-D-Phe-Arg-Trp-Cys]-NH2 [Compound 82]", "MC1/MC4 selectivity": 1.66}, {"substance": "Ac-Tyr-Arg-cyclo[Cys-Glu-(1-Me-His)-(4-Br-D-Phe)-Arg-Trp-Cys]-NH2 [Compound 90]", "MC1/MC4 selectivity": 237.22}, {"substance": "Ac-Tyr-Arg-cyclo[Cys-Glu-(1-Me-His)-(4-F-D-Phe)-Arg-Trp-Cys]-NH2 [Compound 84]", "MC1/MC4 selectivity": 150.60}, {"substance": "Ac-Tyr-Arg-cyclo[Cys-Glu-(1-Me-His)-(4-OMe-D-Phe)-Arg-Trp-Cys]-NH2 [Compound 94]", "MC1/MC4 selectivity": 16.97}, {"substance": "Ac-Tyr-Arg-cyclo[Cys-Glu-(1-Me-His)-D-Phe-Arg-Trp-Cys]-NH2 [Compound 81]", "MC1/MC4 selectivity": 101.69}, {"substance": "Ac-Tyr-Arg-cyclo[Cys-Glu-(1-benzyl-D-His)-D-Phe-Arg-Trp-Cys]-NH2 [Compound 100]", "MC1/MC4 selectivity": 1.67}, {"substance": "Ac-Tyr-Arg-cyclo[Cys-Glu-(1-benzyl-His)-D-Phe-Arg-Trp-Cys]-NH2 [Compound 99]", "MC1/MC4 selectivity": 88.42}, {"substance": "Ac-Tyr-Arg-cyclo[Cys-Glu-(1-pyrazolyl-Ala)-D-Phe-Arg-Trp-Cys]-NH2 [Compound 102]", "MC1/MC4 selectivity": 4.76}, {"substance": "Ac-Tyr-Arg-cyclo[Cys-Glu-(2-pyrazine-Ala)-D-Phe-Arg-Trp-Cys]-NH2 [Compound 105]", "MC1/MC4 selectivity": 24.04}, {"substance": "Ac-Tyr-Arg-cyclo[Cys-Glu-(3-Me-His)-D-Phe-Arg-Trp-Cys]-NH2 [Compound 96]", "MC1/MC4 selectivity": 20.87}, {"substance": "Ac-Tyr-Arg-cyclo[Cys-Glu-(4-phenyl-1H-imidazol-2-yl-Ala)-D-Phe-Arg-Trp-Cys]-NH2 [Compound 103]", "MC1/MC4 selectivity": 75.59}, {"substance": "Ac-Tyr-Arg-cyclo[Cys-Glu-(4-phenyl-1H-imidazol-2-yl-D-Ala)-D-Phe-Arg-Trp-Cys]-NH2 [Compound 104]", "MC1/MC4 selectivity": 3.68}, {"substance": "Ac-Tyr-Arg-cyclo[Cys-Glu-(5-Me-D-His)-D-Phe-Arg-Trp-Cys]-NH2 [Compound 98]", "MC1/MC4 selectivity": 7.43}, {"substance": "Ac-Tyr-Arg-cyclo[Cys-Glu-(5-Me-His)-D-Phe-Arg-Trp-Cys]-NH2 [Compound 97]", "MC1/MC4 selectivity": 8.03}, {"substance": "Ac-Tyr-Arg-cyclo[Cys-Glu-(β-(1,2,4-triazol-3-yl))-Ala)-D-Phe-Arg-Trp-Cys]-NH2 [Compound 106]", "MC1/MC4 selectivity": 23.95}, {"substance": "Ac-Tyr-Arg-cyclo[Cys-Glu-(β-(1,2,4-triazol-3-yl))-D-Ala)-D-Phe-Arg-Trp-Cys]-NH2 [Compound 107]", "MC1/MC4 selectivity": 1.00}, {"substance": "Ac-Tyr-Arg-cyclo[Cys-Glu-(β-(1,3-thiazol-4-yl)-Ala)-D-Phe-Arg-Trp-Cys]-NH2 [Compound 112]", "MC1/MC4 selectivity": 5.62}, {"substance": "Ac-Tyr-Arg-cyclo[Cys-Glu-(β-(2-furyl)-Ala)-D-Phe-Arg-Trp-Cys]-NH2 [Compound 110]", "MC1/MC4 selectivity": 4.27}, {"substance": "Ac-Tyr-Arg-cyclo[Cys-Glu-(β-((1-benzyl)-1,2,4-triazol-3-yl))-D-Ala)-D-Phe-Arg-Trp-Cys]-NH2 [Compound 108]", "MC1/MC4 selectivity": 5.99}, {"substance": "Ac-Tyr-Arg-cyclo[Cys-Glu-(β-((1-benzyl)-1,2,4-triazol-3-yl))-D-Ala)-D-Phe-Arg-Trp-Cys]-NH2 [Compound 109]", "MC1/MC4 selectivity": 6.05}, {"substance": "Ac-Tyr-Arg-cyclo[Cys-Glu-(β-(pyridin-4-yl)-Ala)-D-Phe-Arg-Trp-Cys]-NH2 [Compound 113]", "MC1/MC4 selectivity": 13.51}, {"substance": "Ac-Tyr-Arg-cyclo[Cys-Glu-(β-(thien-2-yl)-Ala)-D-Phe-Arg-Trp-Cys]-NH2 [Compound 111]", "MC1/MC4 selectivity": 7.67}, {"substance": "Ac-Tyr-Arg-cyclo[Cys-Glu-His-(4-Br-D-Phe)-Arg-Trp-Cys]-NH2 [Compound 89]", "MC1/MC4 selectivity": 71.43}, {"substance": "Ac-Tyr-Arg-cyclo[Cys-Glu-His-(4-Cl-D-Phe)-Arg-Trp-Cys]-NH2 [Compound 86]", "MC1/MC4 selectivity": 66.21}, {"substance": "Ac-Tyr-Arg-cyclo[Cys-Glu-His-(4-F-D-Phe)-Arg-Trp-Cys]-NH2 [Compound 83]", "MC1/MC4 selectivity": 45.95}, {"substance": "Ac-Tyr-Arg-cyclo[Cys-Glu-His-(4-Me-D-Phe)-Arg-Trp-Cys]-NH2 [Compound 92]", "MC1/MC4 selectivity": 12.06}, {"substance": "Ac-Tyr-Arg-cyclo[Cys-Glu-His-(4-OMe-D-Phe)-Arg-Trp-Cys]-NH2 [Compound 93]", "MC1/MC4 selectivity": 1.48}, {"substance": "Ac-Tyr-Arg-cyclo[Cys-Glu-His-D-Phe-Arg-Trp-Cys] alcohol [Compound 78]", "MC1/MC4 selectivity": 9.00}, {"substance": "Ac-Tyr-Arg-cyclo[Cys-Glu-His-D-Phe-Arg-Trp-Cys]-2-(2-aminoethoxy)ethanol [Compound 115]", "MC1/MC4 selectivity": 2.00}, {"substance": "Ac-Tyr-Arg-cyclo[Cys-Glu-His-D-Phe-Arg-Trp-Cys]-Lys-Pro alcohol [Compound 122]", "MC1/MC4 selectivity": 0.90}]}]}
